The results in this text go back to ChEMBL document CHEMBL2380264, “Synthesis and antitumor activity of 1,3,4-oxadiazole possessing 1,4-benzodioxan moiety as a novel class of potent methionine aminopeptidase type II inhibitors” (Bioorg Med Chem Lett, 2013).

The nature of data set [1]: Cytotoxicity against HUVEC after 24 hrs by MTT assay. Format: cell-based. To be noted: human, HUVEC cells.
The subject of data set [2] is HUVEC. The data set can be described thus: Antiproliferative against HUVEC after 48 hrs by MTT assay. To be noted: Homo sapiens.
In data set [3] the test system is HUVEC. The data set can be described thus: Induction of apoptosis in HUVEC after 24 hrs by annexin V-FITC/propidium iodide staining-based FACS flow cytometric analysis. Format: functional, cell-based. The following applies: Homo sapiens.
Data set [4] concerns HUVEC. The experiment in a line: Induction of apoptosis in HUVEC assessed as viable cells at 4 uM after 24 hrs by annexin V-FITC/propidium iodide staining-based FACS flow cytometric analysis (reference value: 96.26%). To be noted: Homo sapiens, read-out: Activity. Format: functional.
Data set [5] has as its system HUVEC. The data set can be described thus: Induction of apoptosis in HUVEC assessed as viable cells at 2 uM after 24 hrs by annexin V-FITC/propidium iodide staining-based FACS flow cytometric analysis (reference value: 96.26%). Format: functional. To be noted: Homo sapiens, read-out: Activity.
The test system of data set [6] is HUVEC. The experiment in a line: Induction of apoptosis in HUVEC assessed as viable cells at 1 uM after 24 hrs by annexin V-FITC/propidium iodide staining-based FACS flow cytometric analysis (reference value: 96.26%). Format: functional. The following applies: Homo sapiens, read-out: Activity.
Data set [7] deals with HUVEC. The experiment in a line: Induction of apoptosis in HUVEC assessed as viable cells at 0.5 uM after 24 hrs by annexin V-FITC/propidium iodide staining-based FACS flow cytometric analysis (reference value: 96.26%). Format: functional. To be noted: Homo sapiens, read-out: Activity.
For data set [8], the system named is HUVEC. The experiment in a line: Induction of apoptosis in HUVEC assessed as early apoptotic cells at 4 uM after 24 hrs by annexin V-FITC/propidium iodide staining-based FACS flow cytometric analysis (reference value: 0.02%). Format: functional, Homo sapiens.
The test system of data set [9] is HUVEC. The experiment in a line: Induction of apoptosis in HUVEC assessed as early apoptotic cells at 2 uM after 24 hrs by annexin V-FITC/propidium iodide staining-based FACS flow cytometric analysis (reference value: 0.02%). Format: functional, Homo sapiens.
The test system of data set [10] is HUVEC. The experiment in a line: Induction of apoptosis in HUVEC assessed as early apoptotic cells at 1 uM after 24 hrs by annexin V-FITC/propidium iodide staining-based FACS flow cytometric analysis (reference value: 0.02%). Format: functional, Homo sapiens.
For data set [11], the system named is HUVEC. The data set can be described thus: Induction of apoptosis in HUVEC assessed as early apoptotic cells at 0.5 uM after 24 hrs by annexin V-FITC/propidium iodide staining-based FACS flow cytometric analysis (reference value: 0.02%). Format: functional, Homo sapiens.
Data set [12] deals with HUVEC. The data set can be described thus: Induction of apoptosis in HUVEC assessed as late apoptotic cells at 4 uM after 24 hrs by annexin V-FITC/propidium iodide staining-based FACS flow cytometric analysis (reference value: 0.09%). Format: functional, Homo sapiens.
In data set [13] the test system is HUVEC. The data set can be described thus: Induction of apoptosis in HUVEC assessed as late apoptotic cells at 2 uM after 24 hrs by annexin V-FITC/propidium iodide staining-based FACS flow cytometric analysis (reference value: 0.09%). Format: functional, Homo sapiens.
The subject of data set [14] is HUVEC. The experiment in a line: Induction of apoptosis in HUVEC assessed as late apoptotic cells at 1 uM after 24 hrs by annexin V-FITC/propidium iodide staining-based FACS flow cytometric analysis (reference value: 0.09%). Format: functional, Homo sapiens.
In data set [15] the test system is HUVEC. The experiment in a line: Induction of apoptosis in HUVEC assessed as late apoptotic cells at 0.5 uM after 24 hrs by annexin V-FITC/propidium iodide staining-based FACS flow cytometric analysis (reference value: 0.09%). Format: functional, Homo sapiens.
Data set [16] relates to HUVEC. The data set can be described thus: Induction of apoptosis in HUVEC assessed as dead cells at 4 uM after 24 hrs by annexin V-FITC/propidium iodide staining-based FACS flow cytometric analysis (reference value: 2.82%). Format: functional, Homo sapiens.
Data set [17] has as its system HUVEC. The experiment in a line: Induction of apoptosis in HUVEC assessed as dead cells at 1 uM after 24 hrs by annexin V-FITC/propidium iodide staining-based FACS flow cytometric analysis (reference value: 2.82%). Format: functional, Homo sapiens.
Data set [18] deals with HUVEC. The experiment in a line: Induction of apoptosis in HUVEC assessed as dead cells at 0.5 uM after 24 hrs by annexin V-FITC/propidium iodide staining-based FACS flow cytometric analysis (reference value: 2.82%). Format: functional, Homo sapiens.
Data set [19] has as its system HUVEC. The data set can be described thus: Induction of apoptosis in HUVEC assessed as dead cells at 2 uM after 24 hrs by annexin V-FITC/propidium iodide staining-based FACS flow cytometric analysis (reference value: 2.82%). Format: functional, Homo sapiens.
Data set [20] addresses Methionine aminopeptidase 2 (Homo sapiens, UniProt P50579). The data set can be described thus: Inhibition of MetAP2 (unknown origin) after 4 hrs.

Chain of Methionine aminopeptidase 2 (P50579 whole entry): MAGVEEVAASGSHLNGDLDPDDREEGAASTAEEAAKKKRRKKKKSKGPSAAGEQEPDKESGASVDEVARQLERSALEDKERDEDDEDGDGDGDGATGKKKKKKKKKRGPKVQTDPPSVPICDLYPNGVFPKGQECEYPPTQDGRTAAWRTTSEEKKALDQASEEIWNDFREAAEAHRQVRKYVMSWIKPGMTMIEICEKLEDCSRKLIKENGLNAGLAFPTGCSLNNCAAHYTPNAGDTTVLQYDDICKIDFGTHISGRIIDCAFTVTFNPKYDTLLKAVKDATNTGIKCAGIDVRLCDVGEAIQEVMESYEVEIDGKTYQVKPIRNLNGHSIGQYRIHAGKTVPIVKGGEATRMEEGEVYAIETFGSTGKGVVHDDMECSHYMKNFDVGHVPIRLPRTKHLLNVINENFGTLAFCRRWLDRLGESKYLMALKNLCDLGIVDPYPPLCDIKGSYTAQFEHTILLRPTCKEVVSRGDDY

Turning to `NNC(=O)c1ccc2c(c1)OCCO2`, half-maximal cytotoxicity in data set [1] (CC50 at 24 h) was put at 200 µM. The compound further came in with an IC50 in data set [2] greater than 50 µM.

`Clc1ccccc1/C=C/c1nnc(-c2ccc3c(c2)OCCO3)o1` yielded a cytotoxic concentration (CC50) at 24 h in [1] of 368 µM. Half-maximal inhibition in data set [2] (IC50) required 7.71 µM.

In [1], `Cc1cccc(/C=C/c2nnc(-c3ccc4c(c3)OCCO4)o2)c1` had a 50% cytotoxic concentration (CC50) at 24 h of 201 µM. In [2], this compound returned an IC50 of 40.6 µM.

The compound `C(=C\c1nnc(-c2ccc3c(c2)OCCO3)o1)/c1ccccc1` showed a CC50 at 24 h in [1] of 209 µM. In addition, the concentration for half-maximal inhibition (IC50) in data set [2] is greater than 50 µM.

In [1], `Cc1ccc(/C=C/c2nnc(-c3ccc4c(c3)OCCO4)o2)cc1` yielded a CC50 at 24 h of 265 µM. Further, the midpoint of inhibition in [2], the IC50, lay at 45.2 µM.

In data set [1], `Brc1ccc(/C=C/c2nnc(-c3ccc4c(c3)OCCO4)o2)cc1` came in with a 50% cytotoxic concentration (CC50) at 24 h of 491 µM. The same compound showed an IC50 in data set [2] of 22.3 µM.

Regarding `O=[N+]([O-])c1cccc(/C=C/c2nnc(-c3ccc4c(c3)OCCO4)o2)c1`, in data set [1], the half-maximal cytotoxic concentration (CC50) at 24 h is 309 µM. In addition, in data set [2], it took 30.1 µM to reach half-maximal inhibition (IC50).

In the case of `Fc1ccccc1/C=C/c1nnc(-c2ccc3c(c2)OCCO3)o1`, the Activity result in data set [3] was “Dose-dependent effect”; in data set [8] it was 8.64%; in data set [9], 3.01%; in data set [10], 2.69%; in data set [11], 1.07%; in [12] it was 25.61%. Moreover, the Activity in data set [13] was determined as 16.4%; in data set [14], 14.01%; in [15], 5.22%; in data set [16] it was 26.23%; in [17], 26.68%; in [18], 30.26%. Besides, the Activity in data set [19] amounted to 31.26%. In addition, in data set [4], the viability at 4 µM was found to be 39.5%. Further, the viability at 2 µM in data set [5] is 49.3%. The viability at 1 µM in data set [6] came to 56.6%. Further, in data set [7], the viability at 0.5 µM is 63.5%. In addition, the CC50 at 24 h in data set [1] was determined as 402 µM. The compound also had an IC50 in data set [2] of 1.16 µM.

As to `COc1ccc(/C=C/c2nnc(-c3ccc4c(c3)OCCO4)o2)cc1`, the half-maximal cytotoxic concentration (CC50) at 24 h in [1] was 312 µM. In data set [2], this compound had an IC50 greater than 50 µM.

In [1], `O=[N+]([O-])c1ccc(/C=C/c2nnc(-c3ccc4c(c3)OCCO4)o2)cc1` had a CC50 at 24 h of 299 µM. Moreover, in data set [2], 32.1 µM corresponded to half-maximal inhibition (IC50).

For the compound `Brc1ccccc1/C=C/c1nnc(-c2ccc3c(c2)OCCO3)o1`, the cytotoxic concentration (CC50) at 24 h in [1] stood at 287 µM. For the same compound, the IC50 in [2] was 8.89 µM.

As to `COc1cccc(/C=C/c2nnc(-c3ccc4c(c3)OCCO4)o2)c1`, the midpoint of cytotoxicity in data set [1], the CC50 at 24 h, lay at 332 µM. The compound also showed a half-inhibitory concentration (IC50) in data set [2] greater than 50 µM.

`Brc1cccc(/C=C/c2nnc(-c3ccc4c(c3)OCCO4)o2)c1`: the midpoint of cytotoxicity in data set [1], the CC50 at 24 h, lay at 322 µM. Further, the IC50 in [2] was determined as 13.5 µM.

In [1], `O=[N+]([O-])c1ccccc1/C=C/c1nnc(-c2ccc3c(c2)OCCO3)o1` gave a half-maximal cytotoxic concentration (CC50) at 24 h of 323 µM. The compound further returned a half-maximal inhibitory concentration (IC50) in [2] of 25 µM.

On to `Cc1ccccc1/C=C/c1nnc(-c2ccc3c(c2)OCCO3)o1`, for which half-maximal cytotoxicity in [1] (CC50 at 24 h) was put at 356 µM. The half-inhibitory concentration (IC50) in data set [2] is 40.5 µM.

With `Fc1cccc(/C=C/c2nnc(-c3ccc4c(c3)OCCO4)o2)c1`, half-maximal cytotoxicity in data set [1] (CC50 at 24 h) was put at 295 µM. This compound also had an IC50 in data set [2] of 3.53 µM.

In the case of `CO[C@@H]1[C@H](OC(=O)NC(=O)CCl)CC[C@]2(CO2)[C@H]1[C@@]1(C)O[C@@H]1CC=C(C)C` [O-CHLOROACETYLCARBAMOYLFUMAGILLOL], the IC50 in [2] stood at 1.96 µM; in data set [20] it was 1.32 µM.

Regarding `Fc1ccc(/C=C/c2nnc(-c3ccc4c(c3)OCCO4)o2)cc1`, half-maximal cytotoxicity in [1] (CC50 at 24 h) was put at 325 µM. The same compound yielded a half-maximal inhibitory concentration (IC50) in data set [2] of 4.96 µM.

Take `Clc1ccc(/C=C/c2nnc(-c3ccc4c(c3)OCCO4)o2)cc1`: the CC50 at 24 h in data set [1] is 312 µM. In data set [2], this compound returned an IC50 of 8.03 µM.
